Measured values taken from US20230414611A1, “REFINED USES OF GABA A RECEPTOR MODULATORS IN TREATMENT OF FRAGILE X SYNDROME” (CHILDREN'S HOSPITAL MEDICAL CENTER, priority 2020, published 2023).
Entries after “also recorded” stand apart in the source; their conditions may differ.

Legend:
Assay type in all cases: in vivo, human
[1] = tested on: adults with Fragile X Syndrome (FXS); assay: RBANS list learning in AZD7325 clinical study; design: key to RBANS list learning, difference of least squares means, Estimate: Baseline - Low: difference in raw score (number of words remembered); key to RBANS-LL score: raw score = number of words remembered; higher is better; details: for RBANS-LL score: undetectable FMRP male subjects (n=5), mean ± SD
Text: (§1) This study aims at investigating the safety, tolerability, and blood pharmacodynamics of treatment with oral administration of AZD7325 in adults with Fragile X Syndrome (FXS). This study also investigates measures of efficacy and biomarkers during treatment.
(§2) The treatment conditions are provided Table 2 below:
Table 5 below summarizes clinical measure RBANS List Learning scores from the 5 “undetectable” FMRP male subjects. RBANS List Learning is a verbal working memory task and raw scores provided indicate number of words remembered, with higher scores indicating more number of words remembered. Group average and standard deviation were obtained cross subjects per treatment type (Placebo/Low dose/High dose) and per visit, which are 1) baseline: before intake, 2) acute: after the first dosage, and 3) chronic: post 2-week daily dosage. Higher scores are clinically better.

[2] = tested on: adults with Fragile X Syndrome (FXS); assay: Aberrant Behavior Checklist (ABC / ABC-C subscales); details: for ABC_C_Subscale_1 Irritability / ABC_C_Subscale_2 Lethargy / ABC_C_Subscale_3 Stereotypy / ABC_C_Subscale_4 Hyperactivity / ABC_C_Subscale_5 Inappropriate Speech: undetectable FMRP males (n=5), mean ± SD
Text: Secondary Outcome Measures: • Change in the social withdrawal subscale score of the Aberrant Behavior Checklist (ABC) through the end of the study, approximately 12 weeks. The ABC is the gold standard parent/caregiver reported behavioral outcome measure for use in development disability clinical trials. • Change in the Pediatric Anxiety Rating Scale (PARS) through the end of the study, approximately 12 weeks. The PARS is the gold standard parent/caregiver reported anxiety outcome measure for use in Fragile X Syndrome clinical trials.
The Aberrant Behavior Checklist (ABC) is a standardized rating scale used for assessing problematic behavior designed for use in developmental disabilities, with validity for use in FXS (CITE). ABC-C is the original factor structure with 5 subscales: Irritability, Lethargy, Stereotypy, Hyperactivity, and Inappropriate Speech. See, e.g., Aman et al., J. Child Adolesc Psychopharmacol. 30(8):512-521 (2020), the relevant disclosures of which are incorporated by reference for the subject matter and purpose referenced herein. ABC was only assessed chronically (two weeks after treatment). Overall, no indication that ABC changed during chronic phase.

[3] = tested on: adults with Fragile X Syndrome (FXS); assay: ABC-FXS subscales; design: scale not given here; details: undetectable FMRP males (n=5), mean ± SD
Text: Tables 11-16 below summarize alternative […] scoring for the FXS patient treated with AZD7325. ABC-FXS was created for use within this population to take into account FXS-specific symptoms, and has six subscales: Irritability, Social Unresponsiveness/Lethargy, Stereotypy, Hyperactivity, Inappropriate Speech, and Social Avoidance.

[4] = tested on: adults with Fragile X Syndrome (FXS); assay: WJ auditory attention; details: FMRP-present male patients
[5] = tested on: adults with Fragile X Syndrome (FXS); assay: Clinical response and adverse effects by peripheral FMRP status
Experimental: as §1, §2
Peripheral levels FMRP proteins in the patients were measured by an immunoassay using an antibody specific to FMRP. A fair percentage of males with FXS show mosaicism or a mix of […] and mutation cells. FIG. 3. Peripheral blood FMRP levels from the study participants are shown in Table 4 below (measured using dried blood spot samples using Luminex® Assay; see Example 3 below). The levels of FMRP measured using dried blood spot as disclosed herein are estimated to be about 7 folds higher than the FMRP levels in the blood of the same patient.

[6] = tested on: adults with Fragile X Syndrome (FXS); assay: RBANS list learning in AZD7325 clinical study; design: key to RBANS list learning, difference of least squares means, Estimate: Low - High / RBANS list learning, difference of least squares means, Estimate: Baseline - High: difference in raw score (number of words remembered); details: for RBANS_LL change: chronic
[7] = subgroup of males (outlier removed), low dose 5 mg twice per day oral
[8] = low dose, patients having detectable peripheral FMRP
[9] = subgroup of males (outlier removed), high dose 15 mg twice per day oral

CCCNC(=O)c1nnc2c(-c3c(F)cccc3OC)cccc2c1N [AZD7325, 4-amino-8-(2-fluoro-6-methoxyphenyl)-N-propylcinnoline-3-carboxamide]
RBANS list learning scores, trend ([1]; all eligible subjects, low dose): might improve | performance on RBANS ([1]; high dose): dose limiting effect | RBANS_LL change ([1]; low dose, chronic, nondetectable FMRP subjects): all positive trended | memory as measured by the RBANS assay ([1]; low dose, males): improved memory | RBANS LL score increase, low dose compared to high dose ([1]; subgroup): e Low dose had greater score increase (benefit) than high dose, separating groups. | RBANS list learning, difference of least squares means, Estimate: Baseline - Low [1, 7]: −2.75 | change of RBANS LL from baseline ([1]; subgroup, high dose): c No change from baseline with high dose (direction is toward worsening, −2) | increase (benefit) of RBANS LL compared to placebo ([1]; subgroup, low dose): d Low dose demonstrated increase of nearly 4 (benefit) compared to placebo | increase (benefit) of RBANS LL from baseline ([1]; subgroup, low dose): b Low dose in this subgroup demonstrated an increase (benefit) of +2.75 of RBANS LL from baseline | RBANS-LL score ([1]; high dose, acute (after the first dosage)): 10.4 ± 7.40 | RBANS-LL score ([1]; high dose, baseline (before intake)): 14.8 ± 8.32 | RBANS-LL score ([1]; high dose, chronic (post 2-week daily dosage)): 12.2 ± 6.83 | RBANS-LL score ([1]; low dose, acute (after the first dosage)): 13.2 ± 3.11 | RBANS-LL score ([1]; low dose, baseline (before intake)): 10.6 ± 5.22 | RBANS-LL score ([1]; low dose, chronic (post 2-week daily dosage)): 14.6 ± 6.80 | ABC lethargy and social withdrawal [2, 8]: increases | ABC lethargy and social withdrawal ([2]; low dose, patients having undetectable peripheral FMRP): reduction; also recorded: reduces | ABC irritability ([2]; low dose, regardless of FMRP status (trending), baseline to chronic): reduction; also recorded: reduces | ABC_C_Subscale_1 Irritability ([2]; high dose, baseline): 7.6 ± 7.44 | ABC_C_Subscale_2 Lethargy ([2]; high dose, baseline): 3.2 ± 3.11 | ABC_C_Subscale_3 Stereotypy ([2]; high dose, baseline): 5.0 ± 1.87 | ABC_C_Subscale_4 Hyperactivity ([2]; high dose, baseline): 9.4 ± 10.74 | ABC_C_Subscale_5 Inappropriate Speech ([2]; high dose, baseline): 5.6 ± 4.56 | ABC_C_Subscale_1 Irritability ([2]; high dose, chronic): 7.2 ± 5.36 | ABC_C_Subscale_2 Lethargy ([2]; high dose, chronic): 1.8 ± 1.48 | ABC_C_Subscale_3 Stereotypy ([2]; high dose, chronic): 3.4 ± 0.55 | ABC_C_Subscale_4 Hyperactivity ([2]; high dose, chronic): 7.0 ± 9.06 | ABC_C_Subscale_5 Inappropriate Speech ([2]; high dose, chronic): 4.4 ± 3.78 | ABC_C_Subscale_1 Irritability ([2]; low dose, baseline): 7.6 ± 7.44 | ABC_C_Subscale_2 Lethargy ([2]; low dose, baseline): 3.6 ± 2.97 | ABC_C_Subscale_3 Stereotypy ([2]; low dose, baseline): 3.8 ± 2.28 | ABC_C_Subscale_4 Hyperactivity ([2]; low dose, baseline): 7.8 ± 7.16 | ABC_C_Subscale_5 Inappropriate Speech ([2]; low dose, baseline): 5.4 ± 4.16 | ABC_C_Subscale_1 Irritability ([2]; low dose, chronic): 7.4 ± 8.02 | ABC_C_Subscale_2 Lethargy ([2]; low dose, chronic): 4.6 ± 2.70 | ABC_C_Subscale_3 Stereotypy ([2]; low dose, chronic): 4.6 ± 3.05 | ABC_C_Subscale_4 Hyperactivity ([2]; low dose, chronic): 7.2 ± 8.07 | ABC_C_Subscale_5 Inappropriate Speech ([2]; low dose, chronic): 4.6 ± 3.29 | ABC_FXS_Subscale_1 Irritability ([3]; high dose, baseline): 10.2 ± 10.52 | ABC_FXS_Subscale_2 Socially Unresponsive/Lethargic ([3]; high dose, baseline): 1.8 ± 1.92 | ABC_FXS_Subscale_3 Stereotypy ([3]; high dose, baseline): 5.0 ± 1.87 | ABC_FXS_Subscale_4 Hyperactivity ([3]; high dose, baseline): 6.4 ± 6.80 | ABC_FXS_Subscale_5 Inappropriate Speech ([3]; high dose, baseline): 5.6 ± 4.56 | ABC_FXS_Subscale_6 Social Avoidance ([3]; high dose, baseline): 1.2 ± 1.79 | ABC_FXS_Subscale_1 Irritability ([3]; high dose, chronic): 9.2 ± 7.05 | ABC_FXS_Subscale_2 Socially Unresponsive/Lethargic ([3]; high dose, chronic): 1.0 ± 1.22 | ABC_FXS_Subscale_3 Stereotypy ([3]; high dose, chronic): 3.4 ± 0.55 | ABC_FXS_Subscale_4 Hyperactivity ([3]; high dose, chronic): 4.6 ± 6.31 | ABC_FXS_Subscale_5 Inappropriate Speech ([3]; high dose, chronic): 4.4 ± 3.78 | ABC_FXS_Subscale_6 Social Avoidance ([3]; high dose, chronic): 0.6 ± 0.89 | ABC_FXS_Subscale_1 Irritability ([3]; low dose, baseline): 9.8 ± 8.23 | ABC_FXS_Subscale_2 Socially Unresponsive/Lethargic ([3]; low dose, baseline): 2.4 ± 1.52 | ABC_FXS_Subscale_3 Stereotypy ([3]; low dose, baseline): 3.8 ± 2.28 | ABC_FXS_Subscale_4 Hyperactivity ([3]; low dose, baseline): 4.2 ± 3.77 | ABC_FXS_Subscale_5 Inappropriate Speech ([3]; low dose, baseline): 5.4 ± 4.16 | ABC_FXS_Subscale_6 Social Avoidance ([3]; low dose, baseline): 2.0 ± 1.87 | ABC_FXS_Subscale_1 Irritability ([3]; low dose, chronic): 9.4 ± 9.99 | ABC_FXS_Subscale_2 Socially Unresponsive/Lethargic ([3]; low dose, chronic): 2.2 ± 2.39 | ABC_FXS_Subscale_3 Stereotypy ([3]; low dose, chronic): 4.6 ± 3.05 | ABC_FXS_Subscale_4 Hyperactivity ([3]; low dose, chronic): 4.4 ± 4.98 | ABC_FXS_Subscale_5 Inappropriate Speech ([3]; low dose, chronic): 4.6 ± 3.29 | ABC_FXS_Subscale_6 Social Avoidance ([3]; low dose, chronic): 2.4 ± 1.82 | WJ auditory attention [4]: trending increase | low dose (5 mg BID) versus high dose (15 mg BID) in terms of adverse effects and signal (treatment efficacy) ([5]; human, in vivo): superior over high dose | responsiveness to treatment ([5]; low dose (5 mg twice per day), patients having undetectable peripheral FMRP): responsive; also recorded: showed responsiveness | clinical improvement ([5]; low dose, male patients having undetectable peripheral FMRP): Clinical improvement | responsiveness to treatment [5, 8]: not responsive | effect of drug on RBANS list learning ([6]; all eligible subjects (p=0.09)): trending effect | RBANS_LL change ([6]; low dose, female detectable FMRP subjects): improves RBANS growth in 2 of the three female detectable subjects | RBANS_LL change ([6]; low dose, male detectable FMRP subjects): bi-directional distributed and overlap with placebo | effect on RBANS list learning ([6]; low dose, subgroup of males following removal of an outlier): significant beneficial effect | RBANS list learning, difference of least squares means, Estimate: Baseline - High [6, 9]: 2.09 | RBANS list learning, difference of least squares means, Estimate: Placebo - High [6, 9]: 0.84 | RBANS list learning, difference of least squares means, Estimate: Placebo - Low [6, 7]: −4.00 | RBANS list learning, difference of least squares means, Estimate: Low - High ([6]; subgroup of males (outlier removed), low dose vs high dose): 4.84
